Assay results: publication PMC10216581, “Homogeneous, Synthetic, Non-Saccharide Glycosaminoglycan Mimetics as Potent Inhibitors of Human Cathepsin G” (Biomolecules, 2023)
Several values for one entry are separate records, joined by “and”; a condition that tells them apart may be missing. Equal values may be shown once. Entries after “also recorded” stand apart in the source; their conditions may differ. Marks after values point to notes of the source that are not given here.

Experiments:
Human CatG [1] = molecular target: T1, Human CatG (Homo sapiens, UniProt P08311); assay: Michaelis-Menten kinetics of CatG hydrolysis of chromogenic substrate S-7388 in the presence of NSGM 25; assay type: biochemical
T1 construct: purchased Elastin Products Company (Owensville, MO, USA)
T1 sequence (P08311 21-255): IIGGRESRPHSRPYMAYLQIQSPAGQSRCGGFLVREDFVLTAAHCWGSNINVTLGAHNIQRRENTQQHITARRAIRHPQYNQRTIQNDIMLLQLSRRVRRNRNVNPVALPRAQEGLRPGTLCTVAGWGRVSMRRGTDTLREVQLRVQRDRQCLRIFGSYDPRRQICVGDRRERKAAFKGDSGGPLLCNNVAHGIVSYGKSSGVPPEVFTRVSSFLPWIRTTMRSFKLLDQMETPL
Method: […] The data were analyzed using the standard Michaelis–Menten equation in Sigmaplot version 12 to determine the KM and VMAX.
Figure 5 Kinetics of inhibition of 60 nM CatG by NSGM 25. Michaelis–Menten kinetics of CatG hydrolysis of chromogenic substrate (S-7388) in the presence of NSGM 25. Experiments were performed at 37 °C in 20 mM tris buffer, pH 7.4. Solid lines represent nonlinear regression analysis of the data using the standard Michaelis-Menten to calculate KM and VMAX.

Human CatG [2] = molecular target: T1, Human CatG; assay: Salt dependence of CatG inhibition by NSGM 25 (ionic/nonionic binding energy); assay type: biochemical
Method: Each KI value was calculated from the corresponding IC50 using the Cheng–Prusoff equation [43]. A double-log plot of the KI against Na^+ concentration was prepared and analyzed using the equation log KI=log KI,NONIONIC+ZψlogNa^+ . Here, the slope corresponds to the number of ion-pair interactions (Z) and the counterions released per negative charge upon ion binding (ψ = 0.8), while the intercept corresponds to the nonionic affinity (KI,NONIONIC). The contributions of ionic and nonionic binding energies to the interactions were obtained from the slope and intercept of the plot in Excel.
A fundamental point being advanced in NSGM-based mimicry is the presumed increase in hydrophobic forces contributing to binding affinity. As is well-recognized, heparin and other GAGs utilize primarily electrostatic forces in binding to proteins. […] The resolution of overall binding energy into ionic and nonionic contributions is typically achieved by performing affinity measurements as a function of the ionic strength of the buffer. According to the protein–polyelectrolyte theory, the two contributions can be resolved from a double-log plot of binding affinity against the Na^+ concentration, as defined by the equation log KI = log KI,NONIONIC + Zψ × log [Na^+], where Z represents the number of salt interactions, and ψ is the proportion of Na^+ released per anion upon ligand binding and is equal to 0.8 for heparin [55].
Figure 6 Salt dependence of CatG inhibition by NSGM 25. (A) Salt-dependent direct inhibition of CatG by NSGM 25. Data were obtained using substrate S-7388 in a chromogenic substrate hydrolysis assay. Solid lines represent sigmoidal dose–response analysis (Equation (1)) of the data to obtain IC50, ΔY%, and HS. Errors represent ± 1 S.E. (B) A double-log plot of the KI calculated using Cheng–Rusoff equation for uncompetitive inhibition against the concentration of salt.
The measured IC50s of our allosteric inhibitors are distinct from inhibition constants KI, which are thermodynamic constants. Cheng and Prusoff provided a mathematical foundation for the transformation of IC50s into KIs for uncompetitive inhibitors. In their formulation, KI is equal to IC50 × [S]/(KM + [S]), which is directly applicable to our study. Thus, it becomes possible to utilize the linear double-log analysis described above for our NSGM 25, which is an uncompetitive inhibitor. […] Linear regression yielded a slope of 2.94 and an intercept of −4.32 (Table 5). Whereas the former corresponds to an ionic binding energy of […] at 37 °C and 100 mM salt, the latter yields a nonionic binding energy of 6.12 kcal/mol. […] Such important roles of two forces have not been observed earlier. More importantly, the higher nonionic component bodes well for the discovery of second-generation inhibitors with higher selectivity.

human plasma = assay: Prothrombin time (PT) clotting assay; assay type: biochemical
Method: The impacts of NSGM 25 on activated partial thromboplastin time (aPTT) and the prothrombin time (PT) of human plasma were measured employing a standard one-stage recalcification assay at 37 °C, as previously reported. CaCl2 and thromboplastin-D were used to initiate clotting in aPTT and PT assays, respectively, in the absence and presence of NSGM 25, and the time to clot was recorded accordingly.

thrombin = tested on: thrombin; set-up: method as in PMID 9790687; details: previous study; read-out: inhibitory potency; cited from earlier work
factor Xa = tested on: factor Xa; set-up: method as in PMID 9790687; details: previous study; read-out: inhibitory potency; cited from earlier work
factor XIa = tested on: factor XIa; set-up: method as in PMID 9790687; details: previous study; read-out: inhibitory potency; cited from earlier work
factor IXa = tested on: factor IXa; set-up: method as in PMID 9790687; details: previous study; read-out: inhibitory potency; cited from earlier work
factor XIIa = tested on: factor XIIa; set-up: method as in PMID 9790687; details: previous study; read-out: inhibitory potency; cited from earlier work
[3] = tested on: human neutrophil elastase (HNE); set-up: method as in PMID 23735578; details: previous studies; cited from earlier work
[4] = 50 nM NSGM 25, substrate S-7388, pH 7.4, 37 °C
[5] = linear regression of log KI versus log[Na+]

SMILES: O=c1c(OS(=O)(=O)O)c(-c2ccc(OS(=O)(=O)O)c(OS(=O)(=O)O)c2)oc2cc(OS(=O)(=O)O)cc(OCc3ccc(COc4cc(OS(=O)(=O)O)cc5oc(-c6ccc(OS(=O)(=O)O)c(OS(=O)(=O)O)c6)c(OS(=O)(=O)O)c(=O)c45)cc3)c12 [NSGM 25]
- Km (Human CatG [1]; [4]): 2180 ± 270 µM
- VMAX (Human CatG [1]; [4]): 52.9 ± 4.1 mAu/min
- Km (Human CatG [1]; 100 nM NSGM 25): 1310 ± 60 µM
- VMAX (Human CatG [1]; 100 nM NSGM 25): 31.0 ± 0.8 mAu/min
- Km (Human CatG [1]; 150 nM NSGM 25): 870 ± 200 µM
- VMAX (Human CatG [1]; 150 nM NSGM 25): 21.1 ± 2.1 mAu/min
- Km (Human CatG [1]; 200 nM NSGM 25): 800 ± 110 µM
- VMAX (Human CatG [1]; 200 nM NSGM 25): 17.0 ± 1.0 mAu/min
- Km (Human CatG [1]; 400 nM NSGM 25): 770 ± 300 µM
- VMAX (Human CatG [1]; 400 nM NSGM 25): 12 ± 2 mAu/min and 12.4 ± 2.1 mAu/min
- mechanism of CatG inhibition (Human CatG [1]; from simultaneous reduction in KM and VMAX): uncompetitive
- HS (Human CatG [2]; 50 mM NaCl): 1.3 ± 0.4
- IC50 (Human CatG [2]; 50 mM NaCl): 43 ± 10 nM
- ΔY (Human CatG [2]; 50 mM NaCl): 87.7 ± 7.3 ^b %
- IC50 (Human CatG [2]; 50 mM NaCl, pH 7.4, 37 °C): 42.7 ± 10 nM
- Ki (Human CatG [2]; 50 mM NaCl, calculated from IC50 with Cheng-Prusoff equation (uncompetitive)): 10.9 ± 3.9 nM
- HS (Human CatG [2]; 100 mM NaCl): 0.7 ± 0.1
- IC50 (Human CatG [2]; 100 mM NaCl, pH 7.4, 37 °C): 52.6 ± 12.2 nM
- Ki (Human CatG [2]; 100 mM NaCl, calculated from IC50 with Cheng-Prusoff equation): 19.2 ± 5.3 nM
- HS (Human CatG [2]; 150 mM NaCl): 1.6 ± 0.3
- ΔY (Human CatG [2]; 150 mM NaCl): 74.4 ± 2.9%
- IC50 (Human CatG [2]; 150 mM NaCl, pH 7.4, 37 °C): 319 ± 44.5 nM
- Ki (Human CatG [2]; 150 mM NaCl, calculated from IC50 with Cheng-Prusoff equation): 148 ± 54 nM
- HS (Human CatG [2]; 200 mM NaCl): 2.0 ± 0.5
- ΔY (Human CatG [2]; 200 mM NaCl): 73.2 ± 4.9%
- IC50 (Human CatG [2]; 200 mM NaCl, pH 7.4, 37 °C): 3450 ± 517 nM
- Ki (Human CatG [2]; 200 mM NaCl, calculated from IC50 with Cheng-Prusoff equation): 1670 ± 480 nM
- ionic binding energy (Human CatG [2]; 37 °C and 100 mM salt): 4.88 kcal/mol
- loss in inhibition potency (Human CatG [2]; NaCl increased from 50 mM to 200 mM): ~ 80 fold
- ΔGNON-IONIC (nonionic binding energy) (Human CatG [2]; from intercept of double-log plot): 6.12 kcal/mol
- Intercept (Human CatG [2]; [5]): −4.32
- Slope (Human CatG [2]; [5]): 2.94
- ΔGIONIC (Human CatG [2]; share of binding energy): 44.4%
- ΔGNON-IONIC (Human CatG [2]; share of binding energy): 55.6%
- PT (EC2X) (human plasma; concentration required to double the PT of pooled human plasma): >1000 µM
- effect on PT clotting time (human plasma; human plasma, concentration as high as 1 mM): did not impact; also recorded: did not extend
- IC50 (thrombin): > 150000 nM
- IC50 (factor Xa): > 150000 nM
- IC50 (factor XIa): > 150000 nM
- IC50 (factor IXa): > 150000 nM
- IC50 (factor XIIa): > 150000 nM
- IC50 [3]: ~230 nM
